# Earlier results in PMC3985708 (Biochemistry, 2014).
# Experiments:
# modified hASL^Lys3UUU = conditions: read-out: Kd, modified hASL^Lys3UUU; Kd value from previous studies
# unmodified hASL^Lys3 = conditions: read-out: Kd of NCp7 for unmodified ASL
Kd (modified hASL^Lys3UUU) [nM],Substance,Kd (unmodified hASL^Lys3) [nM],Increase of NCp7 affinity for hASL^Lys3 by the modifications (modified hASL^Lys3; modified versus unmodified ASL) [fold],"Kd (modified hASL^Lys3; read-out: Kd of NCp7 for modified ASL, modified hASL^Lys3) [nM]"
500 ± 100,RVTHHAFLGAHRTVG [P6],–,–,–
–,"NCp7: HIV-1 nucleocapsid protein 7 (MQRGNFRNQRKIVKCFNCGKEGHTARNCRAPRKKGCWKCGKEGHQMKDCTERQAN; Nucleocapsid protein p7; UniProt P04591 378-432, looked up)",2300 ± 620,~10,280 ± 30
